Tests used:
[1] = target: T1, Kv1.5 (Homo sapiens, UniProt P22460); assay: Kv1.5 Patch Clamp EP; type: cell-based; conditions: whole cell patch clamp; for IC50: HEK or LTK- cells, at least four concentrations, n=3
T1 construct: expressed in transfected cells; host or cells: HEK or LTK- cells
Description: The external solution is standard Tyrodes solution. […] Inhibition was measured at the end of the 1 second pulses and expressed relative to controls. Initial Kv1.5 inhibition is estimated by single point determinations done at 1 μM.

[2] = target: T2, HERG (Homo sapiens, UniProt Q12809)
T2 sequence (Q12809 whole entry): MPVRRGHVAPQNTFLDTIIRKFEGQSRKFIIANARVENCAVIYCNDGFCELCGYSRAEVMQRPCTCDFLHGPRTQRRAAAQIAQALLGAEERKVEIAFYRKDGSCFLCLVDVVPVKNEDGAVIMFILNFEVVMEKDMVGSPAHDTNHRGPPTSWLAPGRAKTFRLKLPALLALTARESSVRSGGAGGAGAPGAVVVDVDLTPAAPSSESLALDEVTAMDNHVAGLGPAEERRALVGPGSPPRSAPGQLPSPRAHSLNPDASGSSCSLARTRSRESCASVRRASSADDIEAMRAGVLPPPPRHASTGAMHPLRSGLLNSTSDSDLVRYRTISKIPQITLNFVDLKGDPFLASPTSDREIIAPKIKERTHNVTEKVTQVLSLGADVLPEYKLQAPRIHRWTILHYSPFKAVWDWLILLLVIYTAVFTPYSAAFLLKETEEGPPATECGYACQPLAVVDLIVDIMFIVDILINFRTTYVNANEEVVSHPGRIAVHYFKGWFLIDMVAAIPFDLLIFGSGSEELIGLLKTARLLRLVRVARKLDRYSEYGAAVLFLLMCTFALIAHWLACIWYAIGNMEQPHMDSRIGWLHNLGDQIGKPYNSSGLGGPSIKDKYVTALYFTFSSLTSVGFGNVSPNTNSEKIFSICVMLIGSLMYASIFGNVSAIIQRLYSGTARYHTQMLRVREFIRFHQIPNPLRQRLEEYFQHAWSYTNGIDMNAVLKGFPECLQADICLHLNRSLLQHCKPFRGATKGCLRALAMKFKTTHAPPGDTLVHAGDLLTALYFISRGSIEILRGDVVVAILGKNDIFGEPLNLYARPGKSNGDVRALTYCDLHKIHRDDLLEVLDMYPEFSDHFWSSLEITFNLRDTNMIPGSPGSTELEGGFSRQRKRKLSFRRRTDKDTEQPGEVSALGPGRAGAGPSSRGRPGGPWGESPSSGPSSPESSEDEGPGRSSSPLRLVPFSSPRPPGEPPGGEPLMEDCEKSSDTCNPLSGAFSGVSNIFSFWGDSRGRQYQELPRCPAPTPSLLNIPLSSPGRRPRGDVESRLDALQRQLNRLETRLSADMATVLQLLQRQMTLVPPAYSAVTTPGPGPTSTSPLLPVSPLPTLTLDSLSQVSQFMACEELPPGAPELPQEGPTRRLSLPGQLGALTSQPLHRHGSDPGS
Description: (§1) HERG currents are recorded by the whole cell mode of patch clamp electrophysiology as described by Hamill et al.^3 HERG is stably over expressed in HEK cells. Microelectrodes are pulled from borosilicate glass (TW150) and heat polished (tip resistance, 1.5 to 3 megaohms). The external solution is standard Tyrodes solution. The internal (microelectrode) solution contained: 110 mM KCl, 5 mM K2ATP, 5 mM K4BAPTA, 1 mM MgCl2 and 10 mM HEPES, adjusted to pH 7.2 with KOH. […] Compounds are prepared as 10-20 mM DMSO stocks and diluted to appropriate test concentrations. […] Inhibition of HERG is measured at the peak of the tail currents and expressed relative to controls. Initial HERG activity is estimated by single point determinations run at 10 μM. Concentration response curves are generated for appropriate compounds utilizing at least four concentrations and an n=3. Curve fitting and IC50 estimating are done using Graphpad software (Ver. 4). • 1.

[3] = test system: L-type calcium channels; assay: FLIPR L-Type Calcium Channel Assay; type: cell-based, murine; conditions: HL-1 cells expressing endogenous L-type calcium channels; calcium influx after 20 mM KCl; read-out: L-type Ca^2+ IC50
Method in brief: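 After a 15 min compound pre-incubation at 37 °C with 2.5 mM probenecid, L-type channels were opened by depolarising with 20 mM KCl (final). Fluorescence (488 nm excitation, 510–570 nm emission) was read for 5 min.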

[4] = target: T2, HERG; assay: HERG Patch Clamp EP; conditions: for inhibition at 10 µM: human, HEK cells stably overexpressing HERG
Description: as §1

[5] = 1.0 μM, single point, Kv1.5 stably over expressed in HEK or LTK- cells

T1 sequence (P22460 whole entry): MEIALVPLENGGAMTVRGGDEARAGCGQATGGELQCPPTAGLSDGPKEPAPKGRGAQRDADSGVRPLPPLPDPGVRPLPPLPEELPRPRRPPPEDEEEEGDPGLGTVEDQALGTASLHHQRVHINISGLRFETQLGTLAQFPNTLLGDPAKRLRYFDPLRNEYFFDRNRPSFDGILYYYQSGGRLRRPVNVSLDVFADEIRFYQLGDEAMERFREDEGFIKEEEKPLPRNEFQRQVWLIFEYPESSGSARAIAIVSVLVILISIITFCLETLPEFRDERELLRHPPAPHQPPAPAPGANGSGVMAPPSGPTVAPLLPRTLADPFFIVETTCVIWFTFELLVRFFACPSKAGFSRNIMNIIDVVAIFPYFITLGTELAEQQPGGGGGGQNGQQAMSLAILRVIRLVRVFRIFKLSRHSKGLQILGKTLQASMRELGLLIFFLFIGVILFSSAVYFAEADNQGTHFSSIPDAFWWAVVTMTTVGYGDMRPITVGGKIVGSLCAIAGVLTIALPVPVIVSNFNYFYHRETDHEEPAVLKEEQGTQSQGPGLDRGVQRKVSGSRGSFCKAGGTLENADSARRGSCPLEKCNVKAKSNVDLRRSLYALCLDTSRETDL

**Q.** What does the source list for “1-(Methoxycarbonylamino)-3-[2-(4-methoxyphenyl)ethyl]-4-[4-(tert-butyl)phenyl]-2-imidazolidinone [Compound 80]”?
**A.** Kv1.5% inhibition @ 1.0 μM [1, 5]: 77%; HERG % Inhib. @ 10 μM [2]: 51%; IC50 [3]: 20 µM

**Q.** Which results are given for `COc1ccc(CCN2C(=O)N(NS(N)(=O)=O)CC2c2ccc(C3CC3)cc2)cc1` (stereo not drawn) [Compound 10, 1-(Aminosulfonylamino)-3-[2-(4-methoxyphenyl)ethyl]-4-[(4-cyclopropyl)-phenyl]-2-imidazolidinone]?
**A.** inhibition at 1 µM [1, 5]: 89%; IC50 [1]: 238 nM; inhibition at 10 µM [4]: 57%; IC50 [3]: 22 µM

**Q.** `COc1ccc(CCCN2C(=O)N(NS(C)(=O)=O)CC2c2ccc(OC)cc2)cc1` (stereo not drawn) [Compound 49, 1-(Methylsulfonylamino)-3-[3-(4-methoxyphenyl)propyl]-4-[(4-methoxy)-phenyl]-2-imidazolidinone] was tested. Which inhibition at 1 µM [1, 5] did it give?
**A.** 76%

**Q.** What about the IC50 [1] of the same molecule?
**A.** 466 nM

**Q.** What about the IC50 [4] of the same molecule?
**A.** 11.4 µM

**Q.** What about the inhibition at 10 µM [4] of the same molecule?
**A.** 25%

**Q.** What about the IC50 [3] of the same molecule?
**A.** 23 µM

**Q.** How did the inhibition at 1 µM [1, 5] turn out when `COc1ccc(CCN2C(=O)N(NS(C)(=O)=O)CC2Cc2ccc(C(C)(C)C)cc2)cc1` (stereo not drawn) [Compound 11, 1-(Methylsulfonylamino)-3-[2-(4-methoxyphenyl)ethyl]-4-[(4-tert-butyl)benzyl]-2-imidazolidinone] was run?
**A.** 95%

**Q.** What about the inhibition at 10 µM [4] of the same molecule?
**A.** 45%

**Q.** What about the IC50 [3] of the same molecule?
**A.** 13 µM

Source: patent US7504517B2, “Kv1.5 potassium channel inhibitors” (Wyeth, priority 2006, dated 2009)
